Experiments:
CFTR ΔF508 mutant = biological target: T1, CFTR ΔF508 mutant (Homo sapiens, UniProt P13569, DEL508-508); test: YFP-halide influx assay for the CFTR-ΔF508 mutation (CFBE41o- cells); format: cell-based; conditions: forskolin 10.67 μM; for EC50: from (1−F/F0) vs concentration plot
T1 construct: expressed in transfected cells; host or cells: CFBE41o- cells, adenoviral transduction
Procedure, shortened: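 EC50 derived from plotting 1−F/F0 (fluorescence 36 s after iodide injection over pre-injection value) against compound concentration. Cells: CFBE41o- transduced with ΔF508-CFTR and YFP quench reporter, corrected 24 h at 27° C or by a CFTR modulator at 37° C.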

CFTR G551D mutant = biological target: T2, CFTR G551D mutant (Homo sapiens, UniProt P13569, G551D); test: YFP-halide influx assay for the CFTR-G551D mutation (HEK293 cells); format: cell-based; conditions: forskolin 10.67 μM
T2 construct: expressed in transfected cells; host or cells: HEK293 cells, reverse transfection with plasmids
T2 sequence (P13569 whole entry G551D): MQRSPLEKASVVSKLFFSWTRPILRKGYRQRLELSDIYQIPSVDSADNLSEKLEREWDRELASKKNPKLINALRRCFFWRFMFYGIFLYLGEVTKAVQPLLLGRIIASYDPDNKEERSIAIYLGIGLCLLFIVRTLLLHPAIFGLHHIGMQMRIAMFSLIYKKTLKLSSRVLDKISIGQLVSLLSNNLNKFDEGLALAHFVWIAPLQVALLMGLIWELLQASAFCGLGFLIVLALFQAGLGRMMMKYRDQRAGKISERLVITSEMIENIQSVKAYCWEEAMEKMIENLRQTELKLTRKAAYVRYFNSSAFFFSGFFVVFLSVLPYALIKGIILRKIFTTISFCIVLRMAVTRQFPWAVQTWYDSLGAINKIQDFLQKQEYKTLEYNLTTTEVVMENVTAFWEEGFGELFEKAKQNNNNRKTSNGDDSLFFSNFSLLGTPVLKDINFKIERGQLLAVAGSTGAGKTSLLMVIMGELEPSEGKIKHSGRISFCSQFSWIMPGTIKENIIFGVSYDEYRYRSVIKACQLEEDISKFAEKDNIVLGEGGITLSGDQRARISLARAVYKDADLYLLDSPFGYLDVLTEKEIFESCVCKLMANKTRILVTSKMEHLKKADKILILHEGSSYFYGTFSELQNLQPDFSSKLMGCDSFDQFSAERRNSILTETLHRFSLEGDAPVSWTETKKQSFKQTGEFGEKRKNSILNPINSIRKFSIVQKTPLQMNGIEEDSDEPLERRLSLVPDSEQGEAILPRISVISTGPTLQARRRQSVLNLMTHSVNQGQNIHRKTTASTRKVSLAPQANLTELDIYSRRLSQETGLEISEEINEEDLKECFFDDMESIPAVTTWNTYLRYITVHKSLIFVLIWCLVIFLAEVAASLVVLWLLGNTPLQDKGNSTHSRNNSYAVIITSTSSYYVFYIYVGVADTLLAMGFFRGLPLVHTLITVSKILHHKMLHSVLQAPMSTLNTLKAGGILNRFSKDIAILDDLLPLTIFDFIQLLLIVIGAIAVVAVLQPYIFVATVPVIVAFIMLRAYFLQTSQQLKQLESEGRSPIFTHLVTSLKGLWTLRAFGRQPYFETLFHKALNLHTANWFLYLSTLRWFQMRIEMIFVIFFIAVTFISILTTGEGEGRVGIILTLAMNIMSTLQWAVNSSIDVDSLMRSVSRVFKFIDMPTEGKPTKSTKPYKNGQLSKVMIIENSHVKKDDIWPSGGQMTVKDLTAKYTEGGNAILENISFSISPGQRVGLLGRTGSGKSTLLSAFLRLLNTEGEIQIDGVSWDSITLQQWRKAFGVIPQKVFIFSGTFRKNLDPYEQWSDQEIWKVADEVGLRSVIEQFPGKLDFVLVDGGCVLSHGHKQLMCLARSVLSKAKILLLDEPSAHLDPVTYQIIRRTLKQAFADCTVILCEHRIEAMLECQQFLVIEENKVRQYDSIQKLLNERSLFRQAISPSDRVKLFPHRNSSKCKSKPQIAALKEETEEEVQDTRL
Procedure, shortened: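 Channel opening read as I⁻-driven quenching of a YFP H148Q/I152L/F47L reporter over 7 s post-injection, expressed as 1−F/F0 and fitted against concentration for EC50. Cells were HEK293 co-transfected at seeding with G551D CFTR plus reporter, then grown 24 h at 37 °C, 5% CO2.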

T1 sequence (P13569 with tags, fused parts or gaps DEL508-508): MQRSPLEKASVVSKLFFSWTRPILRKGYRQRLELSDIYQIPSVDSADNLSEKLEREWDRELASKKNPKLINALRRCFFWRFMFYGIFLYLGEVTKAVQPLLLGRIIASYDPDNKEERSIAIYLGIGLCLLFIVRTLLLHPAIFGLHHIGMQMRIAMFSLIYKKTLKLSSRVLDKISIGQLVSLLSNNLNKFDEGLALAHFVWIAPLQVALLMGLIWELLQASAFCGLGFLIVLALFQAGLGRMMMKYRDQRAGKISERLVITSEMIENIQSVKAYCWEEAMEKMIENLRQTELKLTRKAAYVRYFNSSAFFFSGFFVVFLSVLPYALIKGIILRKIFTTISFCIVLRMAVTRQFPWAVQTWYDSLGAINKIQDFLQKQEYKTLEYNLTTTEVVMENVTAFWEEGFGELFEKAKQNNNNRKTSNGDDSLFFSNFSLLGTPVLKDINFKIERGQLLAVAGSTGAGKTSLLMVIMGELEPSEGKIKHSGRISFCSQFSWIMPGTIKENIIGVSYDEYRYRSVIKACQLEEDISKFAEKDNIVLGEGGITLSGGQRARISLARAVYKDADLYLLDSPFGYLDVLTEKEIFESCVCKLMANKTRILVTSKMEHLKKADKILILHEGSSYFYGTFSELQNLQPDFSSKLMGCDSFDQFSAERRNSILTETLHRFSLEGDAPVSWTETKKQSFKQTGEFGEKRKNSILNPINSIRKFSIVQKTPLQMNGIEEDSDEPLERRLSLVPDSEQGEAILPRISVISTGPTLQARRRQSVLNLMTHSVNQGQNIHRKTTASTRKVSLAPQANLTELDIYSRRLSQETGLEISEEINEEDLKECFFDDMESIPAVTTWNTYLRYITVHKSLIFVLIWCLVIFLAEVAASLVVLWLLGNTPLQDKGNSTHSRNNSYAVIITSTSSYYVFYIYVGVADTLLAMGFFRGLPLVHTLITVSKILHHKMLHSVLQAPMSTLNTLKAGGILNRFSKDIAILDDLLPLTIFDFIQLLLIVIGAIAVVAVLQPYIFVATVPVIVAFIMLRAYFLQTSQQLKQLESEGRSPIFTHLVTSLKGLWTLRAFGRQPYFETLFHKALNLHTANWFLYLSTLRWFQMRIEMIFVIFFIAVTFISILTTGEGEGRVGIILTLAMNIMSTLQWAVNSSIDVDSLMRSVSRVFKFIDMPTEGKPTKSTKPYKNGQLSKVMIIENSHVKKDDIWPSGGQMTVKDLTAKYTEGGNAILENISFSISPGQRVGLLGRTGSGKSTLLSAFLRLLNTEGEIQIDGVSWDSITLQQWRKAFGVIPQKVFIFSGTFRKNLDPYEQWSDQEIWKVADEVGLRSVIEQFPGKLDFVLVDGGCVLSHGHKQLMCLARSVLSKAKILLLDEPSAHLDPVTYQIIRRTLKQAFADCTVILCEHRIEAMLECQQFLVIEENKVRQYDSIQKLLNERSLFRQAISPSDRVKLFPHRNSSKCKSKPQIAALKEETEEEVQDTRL

Structure (SMILES)	% Activation (CFTR ΔF508 mutant) [%]	EC50 (CFTR ΔF508 mutant) [nM]	% Activation (CFTR G551D mutant) [%]	EC50 (CFTR G551D mutant) [nM]
Nc1cc(S(=O)(=O)c2ccc(OC(F)(F)F)cc2)cnc1C(=O)N1CC[C@@H](F)C1 [Compound 204, (3-amino-5-{[4-(trifluoromethoxy)phenyl]sulfonyl}pyridin-2-yl)[(3R)-3-fluoropyrrolidin-1-yl]methanone]	92.5	177	73.9	> 3330
Nc1cc(S(=O)(=O)c2ccc(C(F)(F)F)cc2)cnc1C(=O)N[C@@H]1CCC[C@@H]1O [Compound 205, 3-amino-N-[(1R,2S)-2-hydroxycyclopentyl]-5-{[4-(trifluoromethyl)phenyl]sulfonyl}pyridine-2-carboxamide]	96.5	59.9	37.6	
Nc1cc(S(=O)(=O)c2ccc(OC(F)(F)F)cc2)cnc1C(=O)N1CC[C@H](F)C1 [Compound 206, (3-amino-5-{[4-(trifluoromethoxy)phenyl]sulfonyl}pyridin-2-yl)[(3S)-3-fluoropyrrolidin-1-yl]methanone]	103.0	74.8	90.3	3150
CN1CC[C@H](NC(=O)c2ncc(S(=O)(=O)c3ccc(OC(F)(F)F)cc3)cc2N)C1 [Compound 207, 3-amino-N-[(3S)-1-methylpyrrolidin-3-yl]-5-{[4-(trifluoromethoxy)phenyl]sulfonyl}pyridine-2-carboxamide]	78.0	> 667	15.0	> 10000
CN1CC[C@@H](NC(=O)c2ncc(S(=O)(=O)c3ccc(OC(F)(F)F)cc3)cc2N)C1 [Compound 208, 3-amino-N-[(3R)-1-methylpyrrolidin-3-yl]-5-{[4-(trifluoromethoxy)phenyl]sulfonyl}pyridine-2-carboxamide]	70.5	290	20.0	> 10000
CN1CC(NC(=O)c2ncc(S(=O)(=O)c3ccc(OC(F)(F)F)cc3)cc2N)C1 [Compound 210, 3-amino-N-(1-methylazetidin-3-yl)-5-{[4-(trifluoromethoxy)phenyl]sulfonyl}pyridine-2-carboxamide]	44.6	> 667	5.8	> 10000
Nc1cc(S(=O)(=O)c2ccc(OC(F)(F)F)cc2)cnc1C(=O)NC1(C(F)(F)F)COC1 [Compound 214, 3-amino-5-{[4-(trifluoromethoxy)phenyl]sulfonyl}-N-[3-(trifluoromethyl)oxetan-3-yl]pyridine-2-carboxamide]	60.5	> 667	39.1	> 10000
Nc1cc(S(=O)(=O)c2ccc(C(F)(F)F)cc2)cnc1C(=O)N[C@H]1CCC[C@@H]1O [Compound 215, 3-amino-N-[(1S,2S)-2-hydroxycyclopentyl]-5-{[4-(trifluoromethyl)phenyl]sulfonyl}pyridine-2-carboxamide]	109.8	8.9	57.6	389
COCCCNC(=O)c1ncc(S(=O)(=O)c2ccc(C(F)(F)F)cc2)cc1N [Compound 222, 3-amino-N-(3-methoxypropyl)-5-{[4-(trifluoromethyl)phenyl]sulfonyl}pyridine-2-carboxamide]	108.7	40.8	48.4	816
Nc1cc(S(=O)(=O)c2ccc(C(F)(F)F)cc2)cnc1C(=O)NCC1CC1 [Compound 223, 3-amino-N-(cyclopropylmethyl)-5-{[4-(trifluoromethyl)phenyl]sulfonyl}pyridine-2-carboxamide]	96.4	49	19.0	> 10000
CC(C)(C)OCC(O)CNC(=O)c1ncc(S(=O)(=O)c2ccc(C(F)(F)F)cc2F)cc1N (stereo not shown) [Compound 224, 3-amino-N-(3-tert-butoxy-2-hydroxypropyl)-5-{[2-fluoro-4-(trifluoromethyl)phenyl]sulfonyl}pyridine-2-carboxamide]	106.0	8.1	80.6	276
Nc1cc(S(=O)(=O)c2ccc(C(F)(F)F)cc2)cnc1C(=O)N1CCC[C@H]1CO [Compound 226, (3-amino-5-{[4-(trifluoromethyl)phenyl]sulfonyl}pyridin-2-yl)[(2S)-2-(hydroxymethyl)pyrrolidin-1-yl]methanone]	11.9	> 2000	1.4	> 10000
CC(C)(CO)NC(=O)c1ncc(S(=O)(=O)c2ccc(C(F)(F)F)cc2)cc1N [Compound 227, 3-amino-N-(1-hydroxy-2-methylpropan-2-yl)-5-{[4-(trifluoromethyl)phenyl]sulfonyl}pyridine-2-carboxamide]	81.0	> 667	28.1	> 10000
Nc1cc(S(=O)(=O)c2ccc(C(F)(F)F)cc2)cnc1C(=O)NCC1(O)CC1 [Compound 228, 3-amino-N-[(1-hydroxycyclopropyl)methyl]-5-{[4-(trifluoromethyl)phenyl]sulfonyl}pyridine-2-carboxamide]	123.3	8.5	62.6	1040
Nc1cc(S(=O)(=O)c2ccc(C(F)(F)F)cc2)cnc1C(=O)N1C[C@@H](O)[C@H](O)C1 [Compound 229, (3-amino-5-{[4-(trifluoromethyl)phenyl]sulfonyl}pyridin-2-yl) [(3R,4R)-3,4-dihydroxypyrrolidin-1-yl]methanone]	24.0	> 2000	1.0	> 10000
CN1CCC(O)(CNC(=O)c2ncc(S(=O)(=O)c3ccc(C(F)(F)F)cc3)cc2N)CC1 [Compound 230, 3-amino-N-[(4-hydroxy-1-methylpiperidin-4-yl)methyl]-5-{[4-(trifluoromethyl)phenyl]sulfonyl}pyridine-2-carboxamide]	12.4	> 2000	1.5	> 10000
COCC1(C)CN(C(=O)c2ncc(S(=O)(=O)c3ccc(C(F)(F)F)cc3)cc2N)C1 [Compound 232, (3-amino-5-{[4-(trifluoromethyl)phenyl]sulfonyl}pyridin-2-yl)[3-(methoxymethyl)-3-methylazetidin-1-yl]methanone]	94.5	68.4	66.0	1490

Further lines, results first:

% Activation (CFTR ΔF508 mutant) [%]	EC50 (CFTR ΔF508 mutant) [nM]	% Activation (CFTR G551D mutant) [%]	EC50 (CFTR G551D mutant) [nM]	Structure (SMILES)
93.8	36.2	39.3	> 10000	Nc1cc(S(=O)(=O)c2ccc(C(F)(F)F)cc2)cnc1C(=O)NCC(F)(F)F [Compound 209, 3-amino-N-(2,2,2-trifluoroethyl)-5-{[4-(trifluoromethyl)phenyl]sulfonyl}pyridine-2-carboxamide]
98.4	24.7	24.0		CN(Cc1ccc(C(F)(F)F)cc1)S(=O)(=O)c1cnc(C(=O)NCC(O)C(F)(F)F)c(N)c1 (stereo not shown) [Compound 211, 3-amino-5-{methyl[4-(trifluoromethyl)benzyl]sulfamoyl}-N-(3,3,3-trifluoro-2-hydroxypropyl)pyridine-2-carboxamide]
96.7	47.1	33.0		Nc1cc(S(=O)(=O)c2ccc(C(F)(F)F)cc2)cnc1C(=O)NCCC(F)(F)F [Compound 212, 3-amino-5-{[4-(trifluoromethyl)phenyl]sulfonyl}-N-(3,3,3-trifluoropropyl)pyridine-2-carboxamide]
115.3	6	71.0	414	Nc1cc(S(=O)(=O)c2ccc(C(F)(F)F)cc2F)cnc1C(=O)NCC(O)COCC(F)(F)F (stereo not shown) [Compound 213, 3-amino-5-{[2-fluoro-4-(trifluoromethyl)phenyl]sulfonyl}-N-[2-hydroxy-3-(2,2,2-trifluoroethoxy)propyl]pyridine-2-carboxamide]
99.8	19.2	44.7	1050	Nc1cc(S(=O)(=O)c2ccc(C(F)(F)F)cc2F)cnc1C(=O)NCCO [Compound 219, 3-amino-5-{[2-fluoro-4-(trifluoromethyl)phenyl]sulfonyl}-N-(2-hydroxyethyl)pyridine-2-carboxamide]
102.0	16.9	71.6	791	COc1ccc(S(=O)(=O)c2cnc(C(=O)NCC(O)C(F)(F)F)c(N)c2)cc1 (stereo not shown) [Compound 220, 3-amino-5-[(4-methoxyphenyl)sulfonyl]-N-(3,3,3-trifluoro-2-hydroxypropyl)pyridine-2-carboxamide]
101.7	54.5	55.6	1840	COCCOCC(O)CNC(=O)c1ncc(S(=O)(=O)c2ccc(C(F)(F)F)cc2)cc1N (stereo not shown) [Compound 221, 3-amino-N-[2-hydroxy-3-(2-methoxyethoxy)propyl]-5-{[4-(trifluoromethyl)phenyl]sulfonyl}pyridine-2-carboxamide]
106.7	30.9	44.2	2210	CN(CCC(F)(F)F)S(=O)(=O)c1cnc(C(=O)NCC(O)C(F)(F)F)c(N)c1 (stereo not shown) [Compound 225, 3-amino-5-[methyl(3,3,3-trifluoropropyl)sulfamoyl]-N-(3,3,3-trifluoro-2-hydroxypropyl)pyridine-2-carboxamide]

From patent US10047051B2, “Substituted pyridines and method of use” (AbbVie S.á{acute over (.)}r.l., priority 2015, dated 2018)
